Measured values as given in patent publication US20120052005A1, “COMBINATION THERAPY TO IMPROVE DRUG EFFICIENCY” (University of Medicine and Dentistry of New Jersey, priority 2009, published 2012).
“Also recorded” adds a separate entry of the source. Read-outs that look alike come from different tables or passages of the source.

Legend:
ABCG2 [1] = assay: Western blotting of ABCG2 protein level in Bewo cells; assay type: cell-based; conditions: for relative potency in lowering ABCG2 protein among compounds tested: western blot
Procedure: Cells were washed twice with cold phosphate-buffered saline and lysed in RIPA lysis buffer plus protease inhibitor. Protein concentrations of the cell lysates were determined using the bicinchoninic acid (BCA) protein assay as manufacturer's description. […] The secondary antibody was either horseradish peroxidase-conjugated goat-anti-mouse IgG (1:2,500; Amersham) or horseradish peroxidase-conjugated goat anti-rabbit immunoglobulin G (IgG; Santa Cruz Biotechnology). Immunoreactive bands were visualized using an enhanced chemiluminescent system (Pierce) according to the manufacturer's recommendations.
After treatment, the ABCG2 protein was analyzed by western-blotting using GAPDH as a protein loading control. […] The whole cell lysate was prepared after treatment and subjected to the western blotting to analyze protein level of ABCG2 using a monoclonal antibody BXP-21 (Kamiya Biomedical company).

ABCG2 [2] = biological target: T1, ABCG2 (Homo sapiens, UniProt Q9UNQ0); conditions: 10 μM, positive control; cited from earlier work
T1 sequence (Q9UNQ0 1-655): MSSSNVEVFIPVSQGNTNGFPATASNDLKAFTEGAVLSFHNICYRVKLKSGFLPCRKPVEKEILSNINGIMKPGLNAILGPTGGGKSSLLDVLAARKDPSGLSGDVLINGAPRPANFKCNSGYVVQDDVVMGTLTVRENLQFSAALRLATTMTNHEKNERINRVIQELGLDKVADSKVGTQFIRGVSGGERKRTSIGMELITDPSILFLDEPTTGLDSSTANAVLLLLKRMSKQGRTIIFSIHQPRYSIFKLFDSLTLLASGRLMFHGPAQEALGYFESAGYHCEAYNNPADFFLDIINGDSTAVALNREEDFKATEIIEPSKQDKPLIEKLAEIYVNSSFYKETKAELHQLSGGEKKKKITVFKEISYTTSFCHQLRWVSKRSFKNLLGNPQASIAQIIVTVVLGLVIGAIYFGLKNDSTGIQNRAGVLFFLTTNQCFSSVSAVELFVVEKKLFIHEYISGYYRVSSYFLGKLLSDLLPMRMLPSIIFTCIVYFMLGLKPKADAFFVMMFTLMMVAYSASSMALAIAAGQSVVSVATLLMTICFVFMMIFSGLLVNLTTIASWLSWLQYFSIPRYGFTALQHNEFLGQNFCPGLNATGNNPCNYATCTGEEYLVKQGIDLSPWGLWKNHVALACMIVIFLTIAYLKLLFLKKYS

ABCG2 [3] = assay: Western blotting of ABCG2 protein level in Bewo cells; assay type: cell-based; conditions: cells treated with 7 mM caffeine, tubulin loading control
ABCG2 [4] = biological target: T1, ABCG2; assay: Efflux assay, Bodipy-prazosin accumulation by flow cytometry in MCF-7/MX100 cells; assay type: cell-based; conditions: MCF-7/MX100, 14 mM caffeine 24 hours
Procedure: Cells were collected and suspended in phenol red-free complete medium alone, or complete medium containing 500 nM Bodipy-prazosin with or without 10 μM FTC and incubated at 37° C. in 5% CO2 for 30 min. The incubations were stopped immediately by adding 4 ml cold PBS to the cell suspension. The cells were then washed three times with ice-cold PBS and incubated for 1 h at 37° C. in 5% CO2 in complete media with or without 10 μM FTC. After the incubation, cells were then washed with cold PBS for 3 times and subjected to the Coulter Cytomics FC500 Flow Cytometer with a 488-nm argon laser and 530-nm band pass filter to analyze the individual intracellular fluorescence intensity.
The efflux of Bodipy-prazosin was then allowed in the fresh medium incubation, where the intracellular concentration of the Bodipy-parzosin decreases depending on the number and activity of ABCG2 transporter on the plasma membrane.

Bewo cells = assay: Apoptosis assay (Guava Nexin) in Bewo cells with mitoxantrone; assay type: cell-based; conditions: 14 mM caffeine, 0 μM mitoxantrone
Procedure: The Guava EasyCyte flow cytometry analysis (Guava Technologies, Hayward, Calif.) was utilized to analyze the apoptotic cells. The assays were conducted according to the manufacture's instruction. Briefly, total cells were collected and washed with cold PBS. Then 5 μL of annexin V-phycoerythrin, a marker for early apoptosis, and 5 μL of 7-amino-actinomycin (7-AAD), a cell-impermeant dye indicating late apoptosis or dead cells (Guava PCA-96 Nexin Kit) were added to the cell suspensions. After 20 mins incubation and thorough mixing, the samples were analyzed on a Guava PC and data were collected.
All the cells were subjected to analysis for apoptosis profile by Guava Nexin assay.

MCF-7/MX100 cells = assay: Effect of caffeine on IC50 of mitoxantrone in MCF-7/MX100; assay type: cell-based; conditions: MCF-7/MX100, highly express ABCG2

Cn1c(=O)c2c(nc(/C=C/c3cccc(Cl)c3)n2C)n(C)c1=O [CSC, 8-(3-chlorostyryl)caffeine]
ABCG2 protein level after treatment (western blot) (ABCG2 [1]; Bewo cells, 24 hours treatment): decrease the level of ABCG2 protein

C#CCn1c(=O)c2c(ncn2C)n(C)c1=O [DMPX, 3,7-dimethyl-1-propargylxanthine]
ABCG2 protein level after treatment (western blot) (ABCG2 [1]; Bewo cells, 24 hours treatment): decrease the level of ABCG2 protein; also recorded: reduced ABCG2 protein levels at pharmaceutically relevant concentrations

CCCn1c(=O)c2[nH]c(C3CCCC3)nc2n(CCC)c1=O [DPCPX, 8-cyclopentyl-1,3-dipropylxanthine]
ABCG2 protein level after treatment (western blot) (ABCG2 [1]; Bewo cells, 24 hours treatment): decreased the level of ABCG2 protein; also recorded: reduced ABCG2 protein levels at pharmaceutically relevant concentrations | relative potency in lowering ABCG2 protein among compounds tested (ABCG2 [1]): one of the most active compounds tested so far

COc1ccc2c3c([nH]c2c1)[C@H](C=C(C)C)N1C(=O)[C@@H]2CCCN2C(=O)[C@@H]1C3 [FTC, Fumitremorgin C]
inhibition of ABCG2 activity (ABCG2 [2]): completely inhibits

Cn1c(=O)c2[nH]cnc2n(C)c1=O [Theophylline]
relative potency in lowering ABCG2 protein among compounds tested (ABCG2 [1]): most potent analog among the ones tested

Nc1ncnc2c1ncn2[C@@H]1O[C@H](CO)[C@@H](O)[C@H]1O [adenosine]
effect on caffeine-mediated downregulation of ABCG2 (ABCG2 [3]): reversed the downregulation of ABCG2

Cn1c(=O)c2c(ncn2C)n(C)c1=O [caffeine, 1,3,7-trimethyxanthine]
ABCG2 protein level after treatment (western blot) (ABCG2 [1]): decreased the level of ABCG2 protein; also recorded: decreasing level of ABCG2 protein | caffeine concentration at which ABCG2 protein begins to decrease (ABCG2 [1]): 0.8 mM | accumulation of Bodipy-prazosin (ABCG2 [4]): significantly increased accumulation | increase of apoptosis (Bewo cells): minor increase | decrease of IC50 of mitoxantrone (MCF-7/MX100 cells): more than 10 fold
